Experiment [1] concerns wheat rust fungus (Puccinia recondita). The experiment in a line: Test Example 4: foliar spray of flowable formulations on wheat, inoculation with wheat rust fungus, lesion area. Conditions: single use. The class given is in vivo, Puccinia recondita on wheat (cultivar. Shirogane). Here is the method:
Five (5) parts of the present compound 1-3, 35 parts of a mixture of white carbon and ammonium polyoxyethylene alkyl ether sulfate (the weight ratio of 1:1) and 55 parts of water were mixed, and the mixture was then finely-ground by a wet grinding method to obtain a flowable formulation comprising the present compound 1-3. Separately, the flowable formulation comprising the present compound 2-1 was prepared according to the above-mentioned similar method except that the present compound 2-1 was used instead of the present compound 1-3 to form a flowable formulation comprising the present compound 2-1.
Each of the above-mentioned respective flowable formulations, and the flowable formulation comprising the present compound 1-3 and the present compound 2-1 that was prepared according to the above-mentioned Formulation Example 3 was diluted with water such that each concentration of the respective compounds in the dilution solutions was adjusted to that indicated in Table 6, to prepare the dilution solutions, respectively.
A plastic pot was filled with soil, and thereto wheat (cultivar. Shirogane) was seeded, and the plants were grown in a greenhouse for ten days. […]
From each of the lesion area of the treated group and the untreated group, respectively, the efficacy of the treated group was calculated by the below-mentioned Equation 2. […]

A further experiment relates to wheat leaf blight fungus. The experiment in a line: Test Example 3: growth of wheat leaf blight fungus in YBG medium, microtiter plate, absorbance at 550 nm. The class given is cell-based, Mycosphaerella graminicola. Conditions: single use, 18° C., six days. Here is the method: The present compound 1-3 or the present compound 2-1 was dissolved into dimethyl sulfoxide such that each concentration of the present compound 1-3 or the present compound 2-1 was adjusted to one hundred fifty times as much as the concentration indicated in the below-mentioned Table 5. The resultant agent solution was dispensed into a microtiter plate (with 96 wells) in 1 μl portion thereof per well. One hundred forty nine (149) μl of YBG medium (which was prepared by dissolving 10 g of yeast extract, 10 g of Bacto Peptone, and 20 mL of glycerol into 1 L of water, followed by sterilizing the medium) was dispensed into the wells to which the agent solution(s) was/were dispensed. The plate was cultivated at 18° C. for six days, thereby allowing wheat leaf blight fungus to undergo proliferation, and the absorbance at 550 nm of each well of the micro titer plate was then measured to examine a degree of growth of the wheat leaf blight fungus (hereinafter referred to as “treated group”).
Whereas, wheat leaf blight fungus was proliferated similarly to the case of the treated group except that dimethyl sulfoxide was used instead of the agent solution, and the degree of the growth was examined (hereinafter referred to as “untreated group”). The efficacy was calculated from the respective obtained degree of growth by the below-mentioned “Equation 1”.
Efficacy (%)=100×(X−Y)/X Equation 1 […]

The structures appear in SMILES notation.

With `Cc1cccc(-n2nnn(C)c2=O)c1COc1ccn(-c2ccc(Cl)cc2)n1` [Present compound 1-3, 1-(2-{[1-(4-chlorophenyl)-1H-pyrazol-3-yl]oxymethyl}-3-methylphenyl)-4-methyl-1,4-dihydrotetrazol-5-one], the “Efficacy (%)” value in experiment [1] (concentration 0.002 ppm) is 35%; in experiment [1] (concentration 0.01 ppm), 70%; in the experiment with wheat leaf blight fungus (concentration in medium 0.0001 ppm) it was 20%; in the experiment with wheat leaf blight fungus (concentration in medium 0.01 ppm), 37%.

The values above are taken from patent publication US20190008152A1, “PLANT DISEASE CONTROL COMPOSITION AND PLANT DISEASE CONTROL METHOD” (SUMITOMO CHEMICAL COMPANY, LIMITED, priority 2015, published 2019).
